In US20240408064A1, “RAS INHIBITORS, COMPOSITIONS AND METHODS OF USE THEREOF” (GENETOLEAD INC., priority 2021, published 2024):
Entries after “also recorded” stand apart in the source; their conditions may differ.

Assays:
HRas^G12V [1] = molecular target: T1, HRas^G12V (Homo sapiens (Human), UniProt P01112, G12V); test: 19F DLB (ligand-observed 19F NMR) score; format: binding; parameters: scale not given here
Protocol: (§1) All NMR experiments were collected using 3 mm NMR tubes on a 600 MHz Bruker Avance III spectrometer equipped with a QCI helium cryoprobe and a SampleJet sample changer. The buffer used for NMR experiments was 25 mM sodium phosphate pH 7.4, 150 mM NaCl, 5 mM MgCl2, 1 mM TCEP-d16, 10% D2O. Data were processed using Bruker TopSpin.
(§2) Since the fragment library was curated using phosphate buffer, 25 mM sodium phosphate pH 7.4, 150 mM NaCl, 5 mM MgCl2, 1 mM TCEP-d16, 10% D2O Fresh TCEP was used for experiments. Screening was performed using ^1H-decoupled 1D ^19F experiment Bruker experiment (zgfhigqn.2) with 64 scans and a relaxation delay of 5 seconds. 50 μM HRas^G12V and 240 μM of each fragment in pools (mixtures) were used.
Hit confirmation was performed using the same ^19F experiment as the screen. Ligand-observed 1D ^1H, protein-observed 1D ^1H, ^1H T2-CPMG as well as Saturation Transfer Difference (STD) experiments were also run on the same samples. Ligand-observed 1D ^1H was run using the standard Bruker sequence with excitation sculpting (zgesgp) with a relaxation delay of 10 seconds and 16 scans per spectrum. Protein-observed 1D ^1H was performed using the same sequence with a relaxation delay of 1 second and 256 scans in order to increase the signal-to-noise of the protein resonances, while keeping the experimental time relatively short. The ^1H T2-CPMG experiment employed a modified version of the Bruker 1D ^1H zgesgp experiment with the addition of a CPMG pulse train after the first 90° excitation pulse. Total duration for each spin echo was fixed at 1 ms (τ=500 μs), while the number of echoes in the pulse train was varied according to the total time (T). The number of scans for each spectrum was 4 and eight delay times were run on each sample, ranging from 1 ms to 800 ms. […]

HRas^G12V [2] = molecular target: T1, HRas^G12V; test: 19F T2-CPMG NMR score; format: binding
Protocol: as §1, §2
(§3) Hit confirmation was performed using the same ^19F experiment as the screen. Ligand-observed 1D ^1H, protein-observed 1D ^1H, ^1H T2-CPMG as well as Saturation Transfer Difference (STD) experiments were also run on the same samples. Ligand-observed 1D ^1H was run using the standard Bruker sequence with excitation sculpting (zgesgp) with a relaxation delay of 10 seconds and 16 scans per spectrum. Protein-observed 1D ^1H was performed using the same sequence with a relaxation delay of 1 second and 256 scans in order to increase the signal-to-noise of the protein resonances, while keeping the experimental time relatively short. The ^1H T2-CPMG experiment employed a modified version of the Bruker 1D ^1H zgesgp experiment with the addition of a CPMG pulse train after the first 90° excitation pulse. Total duration for each spin echo was fixed at 1 ms (τ=500 μs), while the number of echoes in the pulse train was varied according to the total time (T). The number of scans for each spectrum was 4 and eight delay times were run on each sample, ranging from 1 ms to 800 ms.
Because of its power to probe the intrinsically weak interactions (Kd) between targets and low-molecular weight fragments, NMR fragment-based lead discovery (FBLD) is a very useful biophysical method in early stage drug discovery, especially for challenging target proteins; including those with shallow binding pockets. Since FBLD screens are performed using low-molecular weight compounds (fragments) with lower structural complexity, the same chemical space can be covered using a smaller number of drug-like fragments versus use of large libraries of higher-molecular weight lead-like compounds as in high throughput screening (HTS) campaigns. Therefore, FBLD has a much higher hit rate than HTS using only several hundred to several thousand compounds in comparison with approximately 1 million compounds for HTS. Also, the small size of the compounds screened in FBLD means a better chance to fully match the interactions with small or transient pockets within the target protein, where these less tractable pockets cannot be accessed with standard classical HTS methods. […] We expect this methodology to be more advantageous than classical HTS methods for expediting the time from hit to lead (H2L) and allows for rapid access to high quality leads with lower attrition rates in subsequent lead optimization (LO) campaigns toward pre-clinical candidate selection. FBLD screening by NMR involves a “consensus binding” approach where several distinct NMR experiments (DLB, STD, CPMG) are applied along with a free-state aggregation detection method (T2-CPMG) to rank the compounds for their affinity to the receptor (HRAS in this case) whilst simultaneously monitoring the solution behavior and critical quality attributes of each compound. The latter helps to eliminate artifact binders which are highly problematic. We performed a fluorine screen involving 461 compounds that were derived from a highly curated fragment library. Moreover, two-dimensional ^15N HSQC NMR was also used to validate ligand-binding sites on the target protein. […]

HRas^G12V [3] = molecular target: T1, HRas^G12V; test: Overall binding/activity in the various assays (NMR consensus binding)
Protocol: as §2, §3
STD experiments consisted of two independent spectra with offsets of 0 ppm (on resonance) and −20 ppm (off resonance). […] 160 scans were acquired for each spectrum.
The results obtained with the compounds in the various assays described above are depicted in Table 21.
Because of its power to probe the intrinsically weak interactions (Kd) between targets and low-molecular weight fragments, NMR fragment-based lead discovery (FBLD) is a very useful biophysical method in early stage drug discovery, especially for challenging target proteins; including those with shallow binding pockets. Since FBLD screens are performed using low-molecular weight compounds (fragments) with lower structural complexity, the same chemical space can be covered using a smaller number of drug-like fragments versus use of large libraries of higher-molecular weight lead-like compounds as in high throughput screening (HTS) campaigns. Therefore, FBLD has a much higher hit rate than HTS using only several hundred to several thousand compounds in comparison with approximately 1 million compounds for HTS. Also, the small size of the compounds screened in FBLD means a better chance to fully match the interactions with small or transient pockets within the target protein, where these less tractable pockets cannot be accessed with standard classical HTS methods. […] We expect this methodology to be more advantageous than classical HTS methods for expediting the time from hit to lead (H2L) and allows for rapid access to high quality leads with lower attrition rates in subsequent lead optimization (LO) campaigns toward pre-clinical candidate selection. FBLD screening by NMR involves a “consensus binding” approach where several distinct NMR experiments (DLB, STD, CPMG) are applied along with a free-state aggregation detection method (T2-CPMG) to rank the compounds for their affinity to the receptor (HRAS in this case) whilst simultaneously monitoring the solution behavior and critical quality attributes of each compound. The latter helps to eliminate artifact binders which are highly problematic. We performed a fluorine screen involving 461 compounds that were derived from a highly curated fragment library. Moreover, two-dimensional ^15N HSQC NMR was also used to validate ligand-binding sites on the target protein. In addition, we employed protein-detected biophysical measurements were employed to determine fragment binding affinities to the target protein (Kd) by HSQC NMR. […]

Row | SMILES | 19F DLB Score (HRas^G12V [1]) | 19F T2-CPMG Score (HRas^G12V [2]) | Binding to HRas^G12V (in words) (HRas^G12V [3]) | Activity ranking on HRas^G12V (in words) (HRas^G12V [3])
1 | CC(C)(CNC(=O)Cc1c[nH]c2cc(F)ccc12)C(=O)O [Compound 10062] | 1.07 | 1.59 | low or no binding | –
2 | COC(=O)c1ccc(NC(=O)Cc2c[nH]c3cc(F)ccc23)cc1Cl [Compound 10017] | – | – | low or no binding | –
3 | CCOC(=O)C(Cc1ccccc1)NC(=O)Cc1c[nH]c2cc(F)ccc12 (centres unmarked) [Compound 10096] | 1.14 | 2.11 | low or no binding | –
4 | CN1CCC(NC(=O)Cc2c[nH]c3cc(F)ccc23)C(C(=O)O)C1 (centres unmarked) [Compound 10118, 4-(2-(6-fluoro-1H-indol-3-yl)acetamido)-1-methylpiperidine-3-carboxylic acid] | 1.15 | 2.67 | low or no binding | –
5 | Fc1ccc2c(C3=CCNCC3)c[nH]c2c1 [Compound 11011] | 1.52 | 5.22 | low or no binding | –
6 | O=S(=O)(NCCc1c[nH]c2cc(F)ccc12)c1ccc(F)cc1 [Compound 10046] | 1.02 | 0.79 | low or no binding | –
7 | O=C(O)[C@H]1COCCN1C(=O)Cc1c[nH]c2cc(F)ccc12 [Compound 10152] | 1.03 | 3.54 | low or no binding | –
8 | COC(=O)C1CN(C)CCC1NC(=O)Cc1c[nH]c2cc(F)ccc12 (centres unmarked) [Compound 10142, Methyl 4-(2-(6-fluoro-1H-indol-3-yl)acetamido)-1-methylpiperidine-3-carboxylate] | 1.11 | 2.43 | low or no binding | –
9 | CCOC(=O)C(Cc1c[nH]c2ccccc12)NC(=O)Cc1c[nH]c2cc(F)ccc12 (centres unmarked) [Compound 10112] | – | – | low or no binding | –
10 | CC(=O)N1CCC[C@@H]1C(=O)NCCc1c[nH]c2cc(F)ccc12 [Compound 10044] | 1.07 | 0.95 | low or no binding | –
11 | O=C(Cc1ccc(F)cc1)NCCc1c[nH]c2cc(F)ccc12 [Compound 10012] | 1.32 | 3.96 | low or no binding | –
12 | CCOC(=O)c1ccc(NC(=O)Cc2c[nH]c3cc(F)ccc23)c(C)c1 [Compound 10034] | 1.6 | −8.2 | low or no binding | –
13 | CN(C)CC(=O)Nc1cccc(NC(=O)Cc2c[nH]c3c(Cl)cccc23)c1 [Compound 11070] | – | – | low or no binding | –
14 | O=C(O)C[C@@H](c1ccccc1F)c1c[nH]c2cc(F)ccc12 (single isomer, unassigned) [Compound 11053] | 2.29 | 25.91 | – | More active; also recorded: Most active
15 | O=C(O)CC(c1cccc(O)c1)c1c[nH]c2cc(F)ccc12 (centres unmarked) [Compound 11054] | Non conclusive | – | – | More active
16 | COc1ccc(NC(=O)Cc2c[nH]c3cc(F)ccc23)cc1OC [Compound 10033] | – | – | low or no binding | –
17 | CCOC(=O)CC(c1ccccc1F)c1c[nH]c2cc(F)ccc12 (centres unmarked) [Compound 11045] | 16.69 | – | low or no binding | –
18 | CN(C)CC(=O)Nc1cccc(NC(=O)Cc2c[nH]c3cccc(Br)c23)c1 [Compound 11067] | – | – | low or no binding | –
19 | O=C(O)Cc1c[nH]c2c(Cl)cccc12 [Compound 11069] | – | – | low or no binding | –
20 | CN(C)CC(=O)Nc1cccc(NC(=O)Cc2c[nH]c3cccc(Cl)c23)c1 [Compound 11071] | – | – | low or no binding | –
21 | O=C(O)C[C@H](c1ccccc1F)c1c[nH]c2cc(F)ccc12 (single isomer, unassigned) [Compound 11052] | Non conclusive | – | – | More active
22 | CC1(C)OC(=O)C(C(c2ccc(F)cc2F)c2c[nH]c3cc(F)ccc23)C(=O)O1 (centres unmarked) [Compound 11058] | Non conclusive | – | low or no binding | –
23 | Cc1c(Cl)cc(NC(=O)Cc2c[nH]c3cc(F)ccc23)cc1Cl [Compound 10022] | – | – | low or no binding | –
24 | CN(C)CC(=O)Nc1cccc(NC(=O)Cc2c[nH]c3cc(Cl)ccc23)c1 [Compound 11068] | – | – | low or no binding | –
25 | COc1ccccc1C(=O)NCCc1c[nH]c2cc(F)ccc12 [Compound 10043] | – | – | low or no binding | –
26 | CCOC(=O)c1cccc(NC(=O)Cc2c[nH]c3cc(F)ccc23)c1 [Compound 10019] | – | – | low or no binding | –
27 | O=C(O)CC(c1ccc(O)cc1)c1c[nH]c2cc(F)ccc12 (centres unmarked) [Compound 11055] | Non conclusive | – | – | More active
28 | Cc1ccc(NC(=O)Cc2c[nH]c3cc(F)ccc23)cc1Cl [Compound 10032] | – | – | low or no binding | –
29 | CC(O)C1CN(C(=O)Cc2c[nH]c3cc(F)ccc23)C1 (centres unmarked) [Compound 10131, 2-(6-fluoro-1H-indol-3-yl)-1-(3-(1-hydroxyethyl)azetidin-1-yl)ethan-1-one] | 2.17 | 20.77 | – | –
30 | CC(=O)N[C@H]1CCCN(C(=O)Cc2c[nH]c3cc(F)ccc23)C1 [Compound 10139, (S)—N-(1-(2-(6-fluoro-1H-indol-3-yl)acetyl)piperidin-3-yl) acetamide] | 1.93 | 4.54 | – | –
